Results from patent publication US20110319392A1, “Thiazole Sulfonamide And Oxazole Sulfonamide Kinase Inhibitors” (priority 2009, published 2011).

Tests used:
HT-29 tumor cells = experiment: Cell growth inhibition assay (CellTiter-Glo), HT-29; assay type: cell-based, Human; settings: for IC50: Homo sapiens
Protocol: (§1) Human breast tumor cells (BT474) were cultured in RPMI (Mediatech […]), containing 10% FBS (JRH Biosciences 12176) and 1% penicillin-streptomycin (Invitrogen 15140). Human head and neck tumor cells (HN5) were cultured in high glucose DMEM (Mediatech 50-013-PB) containing 10% FBS and 1% penicillin-streptomycin. Human colon tumor cells (Colo205) were cultured in RPMI (Mediatech 50-020-PB) containing 10% FBS and 1% penicillin-streptomycin. Human melanoma cancer cells (SK-MEL-28) were cultured in EMEM with nonessential amino acids (Mediatech 50-011-PB) containing 10% FBS, 1% sodium pyruvate (JT Baker 3354-04), and 1% penicillin-streptomycin. Human melanoma cancer cells (A375P F11s) were cultured in RPMI (Mediatech 50-020-PB) containing 10% FBS, 1% sodium pyruvate, and 1% penicillin-streptomycin. Human colon cancer cells (HT-29) were cultured in high glucose DMEM (Mediatech 50-013-PB) containing 10% FBS and 1% penicillin-streptomycin. Human melanoma cancer cells (SK-MEL-3) were cultured in McCoy's 5A (50-025-PB) containing 15% FBS, and 1% penicillin-streptomycin. All cell lines were maintained at 37° C. in a humidified 5% CO2, 95% air incubator. Cells were harvested using trypsin/EDTA (Invitrogen 25200), counted using a haemocytometer, and plated. For 96-well assays (using white full-area NUNC plates cat. #136102), cells were plated in 105 μL at the following densities (cells/well): HNS, 500; Colo 205, 500; SK-MEL-28, 500; A375P F11s, 500; HT-29, 500; SK-MEL-3, 500; and BT474, 3000. For 384-well assays (white full-area NUNC plates, cat. #781080), cells were plated in 48 μL at the following densities (cells/well): HNS, 500; Colo205, 500; SK-MEL-28, 500; A375P F11s, 500; HT-29, 500; SK-MEL-3, 500; and BT474, 2000.
(§2) The next day, compounds were diluted as follow: For 96-well assays, 13.5 μL of compound in DMSO were diluted using nine (9) serial 1:3 dilutions of 4.5 μL in 9 of DMSO. Medium (270 μL/well of RPMI with 10% FBS and 1% penicillin-streptomycin) was added to the plates. Aliquots (7 μL) were added to cells in the final assay giving a final DMSO concentration of 0.2%. For 384-well assays, 15 μL of compound in DMSO were diluted using nine (9) serial 1:3 dilutions of 5 μL in 10 μL of DMSO, followed by a further dilution of 5 μL of compound with 95 μL of medium, of which 2 μL were added to cells in the final assay giving a final DMSO concentration of 0.2%. Cells were incubated at 37° C., 5% CO2 for 3 days.
(§3) Total ATP was measured (as a surrogate estimate of cell number) using CellTiter-Glo® reagent (Promega G7571). Briefly, plates were removed from the incubator and allowed to equilibrate to room temperature for 30 minutes. CellTiter-Glo® (25 μL or 55 μL for 384-well or 96-well assays, respectively) reagent was added to each well and plates were shaken on an orbital plate shaker for 2 minutes. Plates were incubated without shaking for a further 30 minutes and read on an LJL Analyst GT reader in luminometer mode with an integration time of 0.5 seconds per well. Percent inhibition of cell growth was calculated relative to DMSO vehicle-treated control wells. Concentration of compound required to give 50% inhibition of vehicle-treated control cell growth (IC50) was interpolated using a 4-parameter fit for determining IC50 using the following equation: Y=A +((B−A)/(1+((C/X)̂D))) where […].

SK-MEL-28 tumor cells = experiment: Cell growth inhibition assay (CellTiter-Glo), SK-MEL-28; assay type: cell-based, Human; settings: Homo sapiens, SK-MEL-28, 72 h; 3 days incubation
How it was run: (§4)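 Cells plated at 500 cells/well in their growth media, dosed next day with nine-step 1:3 compound dilutions (final DMSO 0.2%), then incubated 3 days at 37° C, 5% CO2. Total ATP read by CellTiter-Glo luminescence as a surrogate for cell number; IC50 interpolated from 4-parameter fit versus DMSO controls.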

B-Raf = B-Raf (Homo sapiens, UniProt P15056); experiment: B-Raf Accelerated MEK ATPase assay (BRAMA), Method A or B; assay type: biochemical; settings: Method B: final MEK 150 nM, single end point read
How it was run: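 Activated Raf plus non-phosphorylated MEK drives MEK-mediated ATP hydrolysis; ADP formation coupled via pyruvate kinase/lactate dehydrogenase to NADH oxidation. Method A read kinetically; Method B used 150 nM final MEK and a single end-point read.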

Colo205 tumor cells = experiment: Cell growth inhibition assay (CellTiter-Glo), Colo205; assay type: cell-based, Human; settings: Homo sapiens, COLO 205, 72 h; 3 days incubation
How it was run: as §4

BT474 tumor cells = experiment: Cell growth inhibition assay (CellTiter-Glo), BT474; assay type: cell-based, Human; settings: Homo sapiens, BT-474, 72 h, 3 days incubation
Protocol: as §1, §2, §3

HN5 tumor cells = experiment: Cell growth inhibition assay (CellTiter-Glo), HN5; assay type: cell-based, Human; settings: Homo sapiens, 72 h; 3 days incubation
Protocol: as §1, §2, §3

EGFR = target: T1, EGFR (Homo sapiens, UniProt P00533); experiment: EGFR substrate phosphorylation assay (HTRF); assay type: biochemical
T1 construct: made in house; host or cells: baculovirus expression system
How it was run: (§5)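 Baculovirus-expressed EGFR (0.8 nM) or ErbB2 (10 nM) in enzyme mix, preincubated 1 h at 20 °C with compound (0.00027–47.6 μM final), then 90 min at 20 °C with substrate mix of 20 μM ATP, 0.8 uM biotinylated Peptide C, MnCl2, MOPS pH 7.5. Phosphotyrosine by HTRF; pIC50 reported.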

ErbB2 = target: T2, ErbB2 (Homo sapiens, UniProt P04626); experiment: ErbB-2 substrate phosphorylation assay (HTRF); assay type: biochemical
T2 construct: made in house; host or cells: baculovirus expression system
How it was run: as §5

SK-MEL-3 tumor cells = experiment: Cell growth inhibition assay (CellTiter-Glo), SK-MEL-3; assay type: cell-based, Human; settings: for IC50: Homo sapiens, SK-MEL3
Protocol: as §1, §2, §3

A375P F11s tumor cells = experiment: Cell growth inhibition assay (CellTiter-Glo), A375P F11s; assay type: cell-based, Human; settings: for IC50: Homo sapiens
Protocol: as §1, §2, §3

T2 sequence (P04626 23-1255): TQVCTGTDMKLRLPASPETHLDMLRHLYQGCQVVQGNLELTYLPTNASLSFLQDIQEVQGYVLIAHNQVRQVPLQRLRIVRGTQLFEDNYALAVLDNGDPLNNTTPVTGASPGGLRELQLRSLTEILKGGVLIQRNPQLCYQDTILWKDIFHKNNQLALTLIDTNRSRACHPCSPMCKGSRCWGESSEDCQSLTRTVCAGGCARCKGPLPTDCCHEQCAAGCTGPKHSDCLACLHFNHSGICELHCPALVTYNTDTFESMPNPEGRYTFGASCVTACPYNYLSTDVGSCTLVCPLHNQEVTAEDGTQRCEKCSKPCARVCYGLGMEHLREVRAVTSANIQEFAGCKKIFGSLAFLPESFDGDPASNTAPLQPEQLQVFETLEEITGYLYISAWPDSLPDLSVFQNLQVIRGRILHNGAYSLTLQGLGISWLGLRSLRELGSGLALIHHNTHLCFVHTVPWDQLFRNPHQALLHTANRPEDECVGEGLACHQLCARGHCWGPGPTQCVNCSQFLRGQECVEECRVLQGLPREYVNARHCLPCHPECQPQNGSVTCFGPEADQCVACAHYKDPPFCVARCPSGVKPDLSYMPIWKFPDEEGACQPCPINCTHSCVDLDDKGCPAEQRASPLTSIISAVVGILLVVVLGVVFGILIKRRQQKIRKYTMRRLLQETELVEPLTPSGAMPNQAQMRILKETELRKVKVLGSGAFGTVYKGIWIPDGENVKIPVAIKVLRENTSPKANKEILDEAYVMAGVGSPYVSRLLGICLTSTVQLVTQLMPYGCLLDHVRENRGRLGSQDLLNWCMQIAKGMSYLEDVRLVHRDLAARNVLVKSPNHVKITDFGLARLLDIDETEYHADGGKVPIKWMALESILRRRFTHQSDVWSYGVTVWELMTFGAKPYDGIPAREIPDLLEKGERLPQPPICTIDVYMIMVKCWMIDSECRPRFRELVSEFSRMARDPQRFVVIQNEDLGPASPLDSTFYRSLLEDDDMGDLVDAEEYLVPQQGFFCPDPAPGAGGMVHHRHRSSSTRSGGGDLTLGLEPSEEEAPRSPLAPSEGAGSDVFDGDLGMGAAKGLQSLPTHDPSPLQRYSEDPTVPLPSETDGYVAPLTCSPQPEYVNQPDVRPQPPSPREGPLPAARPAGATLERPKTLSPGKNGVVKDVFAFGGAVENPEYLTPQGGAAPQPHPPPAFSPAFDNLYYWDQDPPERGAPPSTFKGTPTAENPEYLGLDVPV
Sequence of B-Raf (P15056 whole entry): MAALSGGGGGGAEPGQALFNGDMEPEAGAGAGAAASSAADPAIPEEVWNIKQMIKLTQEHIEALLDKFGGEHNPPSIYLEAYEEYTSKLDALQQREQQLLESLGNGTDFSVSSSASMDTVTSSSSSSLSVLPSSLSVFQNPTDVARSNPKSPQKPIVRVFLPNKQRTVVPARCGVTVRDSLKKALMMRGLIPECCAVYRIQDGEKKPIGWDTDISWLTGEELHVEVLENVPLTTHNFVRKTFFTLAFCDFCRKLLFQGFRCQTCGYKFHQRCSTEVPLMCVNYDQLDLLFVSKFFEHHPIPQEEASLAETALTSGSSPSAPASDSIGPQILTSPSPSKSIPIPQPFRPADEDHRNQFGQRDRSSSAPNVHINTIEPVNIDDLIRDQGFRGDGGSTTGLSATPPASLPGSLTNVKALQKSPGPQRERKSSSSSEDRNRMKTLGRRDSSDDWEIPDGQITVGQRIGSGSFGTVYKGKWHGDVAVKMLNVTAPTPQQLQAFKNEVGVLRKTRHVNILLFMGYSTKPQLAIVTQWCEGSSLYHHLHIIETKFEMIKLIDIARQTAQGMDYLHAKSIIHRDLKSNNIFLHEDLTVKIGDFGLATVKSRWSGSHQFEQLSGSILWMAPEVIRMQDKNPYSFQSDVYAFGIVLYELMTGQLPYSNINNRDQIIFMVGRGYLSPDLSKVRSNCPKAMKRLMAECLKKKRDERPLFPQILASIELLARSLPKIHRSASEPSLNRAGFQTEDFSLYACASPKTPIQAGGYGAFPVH
T1 sequence (P00533 25-1210): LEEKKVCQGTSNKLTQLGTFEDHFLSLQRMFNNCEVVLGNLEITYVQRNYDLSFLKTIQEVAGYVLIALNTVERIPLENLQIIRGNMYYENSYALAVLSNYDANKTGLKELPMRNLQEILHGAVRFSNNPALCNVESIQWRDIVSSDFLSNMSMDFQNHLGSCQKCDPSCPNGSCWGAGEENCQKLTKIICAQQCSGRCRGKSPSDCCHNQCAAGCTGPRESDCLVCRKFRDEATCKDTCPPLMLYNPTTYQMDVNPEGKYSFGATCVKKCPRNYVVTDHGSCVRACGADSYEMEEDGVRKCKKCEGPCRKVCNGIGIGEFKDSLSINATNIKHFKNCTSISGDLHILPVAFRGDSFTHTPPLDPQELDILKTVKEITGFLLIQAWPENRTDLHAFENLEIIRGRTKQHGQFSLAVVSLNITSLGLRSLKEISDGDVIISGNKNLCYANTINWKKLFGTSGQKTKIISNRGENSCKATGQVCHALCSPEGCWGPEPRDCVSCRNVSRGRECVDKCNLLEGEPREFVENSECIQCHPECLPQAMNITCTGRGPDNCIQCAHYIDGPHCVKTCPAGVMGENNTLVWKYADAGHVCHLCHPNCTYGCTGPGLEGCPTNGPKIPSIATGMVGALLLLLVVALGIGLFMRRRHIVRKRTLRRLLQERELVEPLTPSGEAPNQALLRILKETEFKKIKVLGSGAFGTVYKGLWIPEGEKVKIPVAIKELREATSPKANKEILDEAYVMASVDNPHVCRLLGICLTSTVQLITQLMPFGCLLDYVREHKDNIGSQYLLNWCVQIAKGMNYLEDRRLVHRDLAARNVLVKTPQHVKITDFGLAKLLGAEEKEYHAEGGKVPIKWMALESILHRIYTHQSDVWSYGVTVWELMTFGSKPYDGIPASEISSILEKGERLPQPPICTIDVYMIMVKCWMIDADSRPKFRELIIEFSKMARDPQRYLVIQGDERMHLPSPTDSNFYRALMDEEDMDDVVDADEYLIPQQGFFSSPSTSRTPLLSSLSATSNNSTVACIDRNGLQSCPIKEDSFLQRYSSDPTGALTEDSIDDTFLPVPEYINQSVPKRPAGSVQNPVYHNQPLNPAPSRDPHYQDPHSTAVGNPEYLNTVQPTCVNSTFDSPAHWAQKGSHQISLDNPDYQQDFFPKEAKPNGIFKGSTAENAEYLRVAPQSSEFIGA

Row | Structure (SMILES) | IC50 (HT-29 tumor cells) | IC50 (SK-MEL-28 tumor cells) | IC50 (B-Raf) | IC50 (Colo205 tumor cells) | IC50 (BT474 tumor cells) | IC50 (HN5 tumor cells) | IC50 (EGFR) | IC50 (ErbB2) | Activity in HT-29 Tumor Cells (HT-29 tumor cells) | Activity in SK-MEL-3 Tumor Cells (SK-MEL-3 tumor cells) | Activity in A375P F11s Tumor Cells (A375P F11s tumor cells) | IC50 (SK-MEL-3 tumor cells) | IC50 (A375P F11s tumor cells)
1 | CC(C)(F)c1nc(-c2cccc(NS(=O)(=O)c3c(F)cccc3F)c2)c(-c2ccnc(Nc3ccc(N4CCN(CCF)CC4)c(F)c3)n2)s1 [Example 94] | < 100 nM | < 100 nM | 100 to 1000 nM | < 100 nM | > 1000 nM | > 1000 nM | > 1000 nM | > 1000 nM | – | – | – | – | –
2 | COCCN1CCN(c2ccc(Nc3nccc(-c4sc(C(C)C)nc4-c4cccc(NS(=O)(=O)c5ccccc5)c4)n3)cn2)CC1.Cl [Example 7] | – | – | – | – | – | – | – | – | +++ (activity of less than 100 nM in HT-29 tumor cells) | +++ (activity of less than 100 nM in SK-MEL-3 tumor cells) | +++ (activity of less than 100 nM in A375P F11s tumor cells) | – | –
3 | CCc1nc(-c2cccc(NS(=O)(=O)c3ccccc3)c2)c(-c2ccnc(Nc3cc(OC)c(OC)c(OC)c3)n2)s1 [Example 2, N-{3-[2-Ethyl-5-(2-{[3,4,5-tris(methyloxy)phenyl]amino}-4-pyrimidinyl)-1,3-thiazol-4-yl]phenyl}benzenesulfonamide] | 100 to 1000 nM | < 100 nM | – | < 100 nM | > 1000 nM | 100 to 1000 nM | > 1000 nM | > 1000 nM | – | – | – | < 100 nM | < 100 nM
4 | COc1c(NS(=O)(=O)c2c(F)cccc2F)cccc1-c1nc(N2CCOCC2)sc1-c1ccnc(Nc2ccc3c(c2)OCCO3)n1 [Example 170] | 100 to 1000 nM | 100 to 1000 nM | < 100 nM | < 100 nM | – | – | > 1000 nM | > 1000 nM | – | – | – | 100 to 1000 nM | 100 to 1000 nM
5 | COc1cc(C2CCN(CCS(C)(=O)=O)CC2)c(C)cc1Nc1nccc(-c2sc(C(C)C)nc2-c2cccc(NS(=O)(=O)c3c(F)cccc3F)c2)n1 [Example 115] | 100 to 1000 nM | < 100 nM | < 100 nM | 100 to 1000 nM | – | – | > 1000 nM | > 1000 nM | – | – | – | 100 to 1000 nM | 100 to 1000 nM
6 | CCc1nc(-c2ccc(F)c(NS(=O)(=O)c3ccccc3)c2)c(-c2ccnc(Nc3ccc(N4CCN(C(C)=O)CC4)nc3)n2)s1 [Example 66] | > 1000 nM | 100 to 1000 nM | < 100 nM | 100 to 1000 nM | > 1000 nM | > 1000 nM | > 1000 nM | > 1000 nM | – | – | – | – | –
7 | Cc1ccc(-c2nc(C(C)C)sc2-c2ccnc(Nc3ccc(N4CCOCC4)nc3)n2)cc1NS(=O)(=O)c1c(F)cccc1F [Example 111] | – | > 1000 nM | 100 to 1000 nM | > 1000 nM | – | – | 100 to 1000 nM | 100 to 1000 nM | – | – | – | – | –
8 | COc1cc(N2CCN(CCS(C)(=O)=O)CC2)c(C)cc1Nc1nccc(-c2sc(C3CCCC3)nc2-c2cccc(NS(=O)(=O)c3c(F)cccc3F)c2)n1 [Example 149] | – | 100 to 1000 nM | 100 to 1000 nM | < 100 nM | – | – | > 1000 nM | 100 to 1000 nM | – | – | – | – | –
9 | CCc1nc(-c2cccc(CNS(=O)(=O)c3ccccc3)c2)c(-c2ccnc(Nc3ccc(N4CCN(CCS(C)(=O)=O)CC4)c(F)c3)n2)s1 [Example 35] | – | > 1000 nM | 100 to 1000 nM | > 1000 nM | – | – | 100 to 1000 nM | 100 to 1000 nM | – | – | – | – | –
10 | CC(C)c1nc(-c2cccc(NS(=O)(=O)c3ccc(C(C)(C)C)cc3)c2)c(-c2ccnc(Nc3ccc(N4CCOCC4)nc3)n2)s1 [Example 142] | – | > 1000 nM | < 100 nM | > 1000 nM | – | – | > 1000 nM | 100 to 1000 nM | – | – | – | – | –
11 | COc1cc(N2CCN(CCS(C)(=O)=O)CC2)c(C)cc1Nc1nccc(-c2sc(C(C)C)nc2-c2cccc(NS(=O)(=O)c3cn(C)cn3)c2)n1 [Example 43] | – | > 1000 nM | 100 to 1000 nM | > 1000 nM | – | – | > 1000 nM | 100 to 1000 nM | – | – | – | – | –
12 | COc1cc(N2CCN(CCS(C)(=O)=O)CC2)c(C)cc1Nc1nccc(-c2sc(C3CCOCC3)nc2-c2cccc(NS(=O)(=O)c3c(F)cccc3F)c2)n1 [Example 150] | – | < 100 nM | < 100 nM | < 100 nM | – | – | < 100 nM | < 100 nM | – | – | – | – | –
13 | Cc1cc(CS(C)(=O)=O)ccc1Nc1nccc(-c2sc(C(C)C)nc2-c2ccc(F)c(NS(=O)(=O)c3c(F)cccc3F)c2)n1 [Example 138] | – | < 100 nM | < 100 nM | 100 to 1000 nM | – | – | > 1000 nM | > 1000 nM | – | – | – | – | –
14 | CC(C)c1nc(-c2cccc(NS(=O)(=O)c3cnn(C)c3)c2)c(-c2ccnc(Nc3ccc(N4CCOCC4)nc3)n2)s1 [Example 174] | – | < 100 nM | < 100 nM | < 100 nM | – | – | > 1000 nM | > 1000 nM | – | – | – | – | –
15 | Cc1cc(S(=O)(=O)Nc2cccc(-c3nc(C(C)C)sc3-c3ccnc(Nc4ccc(N5CCOCC5)nc4)n3)c2)c(F)cc1Cl [Example 105] | – | > 1000 nM | 100 to 1000 nM | 100 to 1000 nM | – | – | > 1000 nM | 100 to 1000 nM | – | – | – | – | –
16 | COc1cc(N2CCN(CCS(C)(=O)=O)CC2)c(C)cc1Nc1nccc(-c2oc(N3CCCC3)nc2-c2cccc(NS(=O)(=O)c3c(F)cccc3F)c2)n1 [Example 136] | – | 100 to 1000 nM | 100 to 1000 nM | 100 to 1000 nM | – | – | 100 to 1000 nM | 100 to 1000 nM | – | – | – | – | –
17 | CCc1nc(-c2ccc(F)c(NS(=O)(=O)c3ccccc3)c2)c(-c2ccnc(Nc3ccc(N4CCN(C(C)C)CC4)cc3OC)n2)s1 [Example 69] | – | > 1000 nM | 100 to 1000 nM | > 1000 nM | – | – | 100 to 1000 nM | 100 to 1000 nM | – | – | – | – | –
18 | CS(=O)(=O)N1CCN(c2ccc(Nc3nccc(-c4oc(N5CCCC5)nc4-c4ccc(F)c(NS(=O)(=O)c5ccccc5F)c4)n3)cn2)CC1 [Example 60] | – | > 1000 nM | < 100 nM | 100 to 1000 nM | – | – | > 1000 nM | > 1000 nM | – | – | – | – | –
